Laboratory results: PubChem BioAssay AID248 (DTP/NCI, 2004)
Where “and” joins values, the source holds several entries; their conditions need not be identical. Equal entries are not always repeated. Toxic doses and inconclusive results are not listed. Rule as the data show it: active = T/C of 150% or more; inactive = T/C below 125%.

System: L1210 leukemia ip in BDF1 mice, survival T/C
Experiment: NCI In Vivo Anticancer Drug Screen. Data for tumor model L1210 Leukemia (intraperitoneal) in B6D2F1 (BDF1) mice
Details: endpoint: mean survival time, higher = longer survival
Outline: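 Survival endpoint. Drug-treated group vs vehicle group, expressed as T divided by C. Tumor passaged by transplantation.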

[1] = dose: 100.0 mg/kg/injection, schedule: Q04DX002 (ip), vehicle: saline with Tween-80
[2] = dose: 200.0 mg/kg/injection, schedule: Q04DX002 (ip), vehicle: saline with Tween-80
[3] = dose: 100.0 mg/kg/injection, schedule: Q04DX003 (ip), vehicle: saline
[4] = dose: 100.0 mg/kg/injection, schedule: Q04DX003 (ip), vehicle: Klucel (hydroxypropylcellulose) (HPC)
[5] = dose: 200.0 mg/kg/injection, schedule: Q04DX003 (ip), vehicle: Klucel (hydroxypropylcellulose) (HPC)
[6] = dose: 400.0 mg/kg/injection, schedule: Q04DX003 (ip), vehicle: Klucel (hydroxypropylcellulose) (HPC)
[7] = dose: 100.0 mg/kg/injection, schedule: Q01DX009 (ip), vehicle: saline with Tween-80
[8] = dose: 100.0 mg/kg/injection, schedule: Q04DX002 (ip), vehicle: Klucel (hydroxypropylcellulose) (HPC)
[9] = dose: 200.0 mg/kg/injection, schedule: Q04DX002 (ip), vehicle: Klucel (hydroxypropylcellulose) (HPC)
[10] = dose: 400.0 mg/kg/injection, schedule: Q04DX002 (ip), vehicle: Klucel (hydroxypropylcellulose) (HPC)
[11] = dose: 25.0 mg/kg/injection, schedule: Q01DX009 (ip), vehicle: saline with Tween-80
[12] = dose: 50.0 mg/kg/injection, schedule: Q01DX009 (ip), vehicle: saline with Tween-80

Measured: T/C

O=C1CC(C(=O)O)C2(CCCCC2)O1 (centres undefined)
inactive: [1] 104 % of control | [2] 101 % of control | dose: 400.0 mg/kg/injection, schedule: Q04DX002 (ip), vehicle: saline with Tween-80 101 % of control

CCCC(C(=O)OCCN(CC)CC)(c1ccccc1)c1ccccc1
inactive: dose: 6.25 mg/kg/injection, schedule: Q01DX009 (ip), vehicle: saline 106 % of control | dose: 12.5 mg/kg/injection, schedule: Q01DX009 (ip), vehicle: saline 92 % of control | dose: 12.5 mg/kg/injection, schedule: Q04DX003 (ip), vehicle: saline 102 % of control | dose: 25.0 mg/kg/injection, schedule: Q01DX009 (ip), vehicle: saline 93 % of control | dose: 25.0 mg/kg/injection, schedule: Q04DX003 (ip), vehicle: saline 116 % of control | dose: 50.0 mg/kg/injection, schedule: Q01DX009 (ip), vehicle: saline 93 % of control | dose: 50.0 mg/kg/injection, schedule: Q04DX003 (ip), vehicle: saline 100 % of control | [3] 102 % of control

[N-]=[N+]=Nc1cccc[n+]1[O-]
inactive: [4] 105 % of control | [5] 109 % of control | [6] 105 % of control

C(=C\c1ccccc1)/C=N/N=C/C=C/c1ccccc1
inactive: dose: 100.0 mg/kg/injection, schedule: Q01DX001 (ip), vehicle: other 105 % of control | [7] 94 % of control | [8] 100 % of control | dose: 100.0 mg/kg/injection, schedule: Q04DX003 (ip), vehicle: saline with Tween-80 90 % of control | dose: 200.0 mg/kg/injection, schedule: Q01DX001 (ip), vehicle: other 97 % of control | dose: 200.0 mg/kg/injection, schedule: Q01DX009 (ip), vehicle: saline with Tween-80 90 % of control | [9] 96 % of control | dose: 200.0 mg/kg/injection, schedule: Q04DX003 (ip), vehicle: saline with Tween-80 89 % of control | dose: 400.0 mg/kg/injection, schedule: Q01DX001 (ip), vehicle: other 94 % of control | dose: 400.0 mg/kg/injection, schedule: Q01DX009 (ip), vehicle: saline with Tween-80 94 % of control | [10] 100 % of control | dose: 400.0 mg/kg/injection, schedule: Q04DX003 (ip), vehicle: saline with Tween-80 92 % of control

CCCCOc1ccc(S(=O)(=O)c2ccc(OCCCC)c([N+](=O)[O-])c2)cc1[N+](=O)[O-]
inactive: dose: 75.0 mg/kg/injection, schedule: Q04DX002 (ip), vehicle: gum acacia 97 % of control | dose: 150.0 mg/kg/injection, schedule: Q04DX002 (ip), vehicle: gum acacia 97 % of control | dose: 300.0 mg/kg/injection, schedule: Q04DX002 (ip), vehicle: gum acacia 97 % of control

Nc1nc(CCc2ccc(NC(=O)CBr)cc2)c(CCCCc2ccccc2)c(=O)[nH]1
inactive: dose: 50.0 mg/kg/injection, schedule: Q01DX001 (ip), vehicle: saline 104 % of control | dose: 100.0 mg/kg/injection, schedule: Q01DX001 (ip), vehicle: saline 102 % of control | dose: 200.0 mg/kg/injection, schedule: Q01DX001 (ip), vehicle: saline 96 % of control | dose: 400.0 mg/kg/injection, schedule: Q01DX001 (ip), vehicle: saline 110 % of control

O=C(Cn1ccc(=O)[nH]c1=O)N1CCC2(CC1)SSC1(CCN(C(=O)Cn3ccc(=O)[nH]c3=O)CC1)S2
inactive: dose: 100.0 mg/kg/injection, schedule: Q01DX009 (ip), vehicle: saline 106 % of control | [3] 97 % of control | dose: 200.0 mg/kg/injection, schedule: Q01DX009 (ip), vehicle: saline 98 % of control | dose: 200.0 mg/kg/injection, schedule: Q04DX003 (ip), vehicle: saline 95 % of control | dose: 400.0 mg/kg/injection, schedule: Q01DX009 (ip), vehicle: saline 93 % of control | dose: 400.0 mg/kg/injection, schedule: Q04DX003 (ip), vehicle: saline 92 % of control

C=NC1CCCCC1
inactive: dose: 100.0 mg/kg/injection, schedule: Q04DX002 (ip), vehicle: gum acacia 105 % of control | dose: 200.0 mg/kg/injection, schedule: Q04DX002 (ip), vehicle: gum acacia 105 % of control | dose: 400.0 mg/kg/injection, schedule: Q04DX002 (ip), vehicle: gum acacia 92 % of control

Cc1ccc(S(=O)(=O)N/N=C/N(C)C)cc1
inactive: dose: 100.0 mg/kg/injection, schedule: Q01DX009 (ip), vehicle: Klucel (hydroxypropylcellulose) (HPC) 91 % of control | [4] 102 % of control | dose: 200.0 mg/kg/injection, schedule: Q01DX009 (ip), vehicle: Klucel (hydroxypropylcellulose) (HPC) 98 % of control | [5] 103 % of control | dose: 400.0 mg/kg/injection, schedule: Q01DX009 (ip), vehicle: Klucel (hydroxypropylcellulose) (HPC) 96 % of control | [6] 97 % of control

CCCC(=O)N1CCCCC1C (centres undefined)
inactive: [8] 112 % of control | [9] 89 % of control

Nc1ccc2c(c1)-c1ccccc1C1=NCCN12
inactive: dose: 2.5 mg/kg/injection, schedule: Q04DX003 (ip), vehicle: Klucel (hydroxypropylcellulose) (HPC) 102 % of control | dose: 5.0 mg/kg/injection, schedule: Q01DX009 (ip), vehicle: Klucel (hydroxypropylcellulose) (HPC) 98 % of control | dose: 5.0 mg/kg/injection, schedule: Q04DX003 (ip), vehicle: Klucel (hydroxypropylcellulose) (HPC) 102 % of control | dose: 10.0 mg/kg/injection, schedule: Q01DX009 (ip), vehicle: Klucel (hydroxypropylcellulose) (HPC) 98 % of control | dose: 10.0 mg/kg/injection, schedule: Q04DX003 (ip), vehicle: Klucel (hydroxypropylcellulose) (HPC) 93 % of control | dose: 20.0 mg/kg/injection, schedule: Q01DX009 (ip), vehicle: Klucel (hydroxypropylcellulose) (HPC) 96 % of control | dose: 20.0 mg/kg/injection, schedule: Q04DX003 (ip), vehicle: Klucel (hydroxypropylcellulose) (HPC) 90 % of control

CCCCNC(=O)Nc1ccccc1
inactive: [4] 100 % of control | [5] 112 % of control | [6] 96 % of control

CC1(C)NC(=S)NC1=S
inactive: dose: 100.0 mg/kg/injection, schedule: Q01DX009 (ip), vehicle: alcohol 103 % of control | [8] 89 % of control | dose: 200.0 mg/kg/injection, schedule: Q01DX009 (ip), vehicle: alcohol 101 % of control | [9] 89 % of control | [10] 96 % of control

N#CCCSc1ccccc1
inactive: [11] 112 % of control | [12] 91 % of control | [7] 100 % of control and 105 % of control | [1] 86 % of control | [2] 100 % of control

c1ccc2c(c1)CCc1ccccc1C2NC1=NCCO1
inactive: dose: 12.5 mg/kg/injection, schedule: Q01DX009 (ip), vehicle: saline with Tween-80 94 % of control | dose: 12.5 mg/kg/injection, schedule: Q04DX003 (ip), vehicle: saline with Tween-80 97 % of control | [11] 89 % of control | dose: 25.0 mg/kg/injection, schedule: Q04DX003 (ip), vehicle: saline with Tween-80 100 % of control | [12] 93 % of control | dose: 50.0 mg/kg/injection, schedule: Q04DX003 (ip), vehicle: saline with Tween-80 93 % of control

N=C(N)SCCSC(=N)N
inactive: dose: 100.0 mg/kg/injection, schedule: Q04DX003 (ip), vehicle: saline sonified 93 % of control

O=C1Cc2ccccc2/C=C\c2ccccc21
inactive: dose: 100.0 mg/kg/injection, schedule: Q01DX001 (ip), vehicle: Klucel (hydroxypropylcellulose) (HPC) 97 % of control | [4] 102 % of control | dose: 200.0 mg/kg/injection, schedule: Q01DX001 (ip), vehicle: Klucel (hydroxypropylcellulose) (HPC) 100 % of control | [5] 96 % of control | dose: 400.0 mg/kg/injection, schedule: Q01DX001 (ip), vehicle: Klucel (hydroxypropylcellulose) (HPC) 106 % of control | [6] 102 % of control

CS(=O)(=O)c1nc(Cl)nc(C(Cl)(Cl)Cl)c1Cl
inactive: [11] 101 % of control | [12] 95 % of control

COc1ccc(/C=N/Nc2nnc(N/N=C/c3ccc(OC)c(O)c3)c3ccccc23)cc1O
inactive: dose: 50.0 mg/kg/injection, schedule: Q01DX001 (ip), vehicle: carboxymethylcellulose (CMC) 103 % of control | dose: 100.0 mg/kg/injection, schedule: Q01DX001 (ip), vehicle: carboxymethylcellulose (CMC) 103 % of control | dose: 200.0 mg/kg/injection, schedule: Q01DX001 (ip), vehicle: carboxymethylcellulose (CMC) 103 % of control | dose: 400.0 mg/kg/injection, schedule: Q01DX001 (ip), vehicle: carboxymethylcellulose (CMC) 100 % of control
